This is an account of results in article PMC12638514, “Identification of Novel β‐Lactam Derivatives as Proteasome Inhibitors for Antitumor Therapy” (Archiv Der Pharmazie, 2025).

Each structure is given as a SMILES string.

The test system of one experiment is Molt4 cells. Kind of experiment: Cell proliferation inhibition assay (CCK8), Molt4. It is filed as cell-based. The note with it: Homo sapiens, MOLT-4, 72 h, mean ± SD. How it is done: (§1) MV‐4‐11 cells (1 × 10^4 cells/well), RPMI‐8226 cells (8 × 10^3 cells/well), Molt4 cells (2 × 10^3 cells/well), RS4;11 cells (2 × 10^4 cells/well), and PBMC cells (2 × 10^4 cells/well) were seeded in 96‐well plates (Corning, 3599). Cells were treated with either 0.2% DMSO or fivefold dilutions of compounds from 10 mM stock solutions in DMSO (0.2% final concentration of DMSO) for 72 h. 10 μL of CCK8 reagent was added to each well, and the plates were incubated at 37°C for 3 h. Absorbance was measured at 450 nm and 650 nm using a Spectra Max Molecular Devices microplate reader. The final data were calibrated by OD450 nm‐OD650 nm.

Experiment [1] deals with RS4;11 cells. In words: Cell proliferation inhibition assay (CCK8), RS4;11. It is filed as cell-based, human. The note with it: mean ± SD. As for the experimental part: as §1
Experiment [2] concerns the target T1, human constitutive proteasome, β5 subunit (CT‐L) (Homo sapiens, UniProt P20618+P28074).
T1 construct: gift of Dr. Jiang-ping Wu (Notre-Dame Hospital, Montreal)
In words: In vitro 20S proteasome chymotrypsin‐like (CT‐L, β5) inhibition assay. The experiment is classed as biochemical. The note with it: CT‐L activity, substrate Suc‐LLVY‐AMC; mean ± SD of three independent experiments. How it is done:
(§2) The human constitutive proteasome was generously provided by Dr. Jiang‐ping Wu (Notre‐Dame Hospital, Montreal, QC, Canada). […] The proteasome activity assay was performed in a total volume of 50 μL, with all samples diluted in Tris–HCl buffer (100 mM Tris–HCl, pH 8.0). […] 10 μL purified human proteasome (25 μg/mL) was added to 1 μL of each compound; after incubation for 15 min, the mixture was combined with 39 μL of the fluorogenic substrate. […] The IC50 values were calculated using the software GraphPad Prism4, employing the “sigmoidal dose–response (variable slope)” equation for curve fitting.

The target in experiment [3] is proteasome β2 subunit (T‐L) (Homo sapiens, UniProt P49720+Q99436). Kind of experiment: Proteasome trypsin‐like (T‐L, β2) inhibition. The experiment is classed as biochemical. The note with it: T‐L activity; mean ± SD of three independent experiments. How it is done: as §2
Experiment [4] has as its target proteasome β1 subunit (C‐L) (Homo sapiens, UniProt P28072+Q99436). Kind of experiment: Proteasome caspase‐like (C‐L, β1) inhibition. The experiment is classed as biochemical. The note with it: C‐L activity; mean ± SD of three independent experiments. As for the experimental part:
as §2

The subject of another experiment is RPMI‐8226 cells. In words: Cell proliferation inhibition assay (CCK8), RPMI‐8226. The experiment is classed as cell-based. The note with it: Homo sapiens, 72 h, mean ± SD. How it is done: as §1
The subject of the next experiment is MV‐4‐11 cells. In words: Cell proliferation inhibition assay (CCK8), MV‐4‐11. It is filed as cell-based. The note with it: Homo sapiens, MV4-11, 72 h, mean ± SD. As for the experimental part: as §1
The subject of experiment [5] is RS4;11 cells. Kind of experiment: Western blot of apoptosis‐related and ubiquitinated proteins. The experiment is classed as cell-based, human. How it is done: (§3) Apoptosis was assessed using an Annexin V‐APC/7AAD apoptosis detection kit (GA1023‐KGA1026, Keygentec, Nanjing, China), followed by flow cytometry analysis. Briefly, cells were treated with the indicated drug concentration and durations or left untreated, then washed twice with PBS, stained with Annexin V‐APC/7AAD, and analyzed using flow cytometry (CytoFLEX flow cytometer, Beckman Coulter Inc.). RS4;11 cells were exposed to various concentrations of the compound or DMSO. Protein lysates were prepared using 4 × Laemmli sample buffer (161073, BIORAD, Richmond, USA). Protein samples were separated by SDS‐polyacrylamide gel electrophoresis (BIO‐RAD, Richmond, USA) and subsequently transferred to nitrocellulose (NC) membranes. Following a 90‐min blocking step with 5% skim milk at room temperature, the NC membranes were incubated with the primary antibody at 4 °C overnight, followed by three washes with TBST for 10 min each. The NC membranes were then incubated with secondary antibodies for 1.5 h at room temperature. Signals were detected by ECL (KF8001&KF8003, Affinity, China) using the BIO‐RAD ChemiDoc Touch Imaging System.
On the technique in general: Immunoblotting shows a protein as a band on a membrane.

For experiment [6], the system named is RS4;11 cells. In words: Apoptosis assay by flow cytometry. It is filed as cell-based, human. The note with it: 1, 2 and 4 μM, 12 h. How it is done:
as §3

For experiment [7], the system named is normal peripheral blood mononuclear cells (PBMC). Kind of experiment: Cell proliferation inhibition assay (CCK8), PBMC. The note with it: 72 h, mean ± SD, read-out: IC50 PBMC‐3Day. The experiment is classed as cell-based. How it is done:
as §1

For experiment [8], the system named is rabbit 20S proteasome β5 (CT‐L). Set-up: method as in PMID 24452398, PMID 21946808. The note with it: Figure 2; cited from earlier work.

For `CC(C)(C)CNC(=O)C[C@H](NC(=O)c1cnccn1)C(=O)N[C@@H](CCc1ccccc1)C(=O)N[C@H]1CN(c2ccc(F)cc2)C1=O` [Compound 69], the IC50 was greater than 10000 nM with Molt4 cells; 1520 ± 670 nM in the experiment on RS4;11 cells [1] (Homo sapiens, RS4-11, 72 h); 288 ± 57.2 nM in experiment [2]; greater than 10000 nM in experiment [3]; greater than 10000 nM in [4]; 10200 ± 760 nM with RPMI‐8226 cells. Besides, the IC50 in the experiment with MV‐4‐11 cells is greater than 20000 nM.
Turning to `CN(C)c1ccc(N2C[C@@H](NC(=O)[C@H](CCc3ccccc3)NC(=O)[C@H](CC(=O)NCC(C)(C)C)NC(=O)c3cccnc3)C2=O)cc1` [Compound 77, (S)‐N ^1‐[(S)‐1‐{[(R)‐1‐[4‐(Dimethylamino)phenyl]‐2‐oxoazetidin‐3‐yl]amino}‐1‐oxo‐4‐phenylbutan‐2‐yl]‐N ^4‐neopentyl‐2‐(nicotinamido)succinamide], the IC50 in experiment [2] is 132 ± 14.8 nM; in [3], greater than 10000 nM; in experiment [4], greater than 10000 nM.
In turn, `O=C(N[C@@H](CCc1ccccc1)C(=O)N[C@@H](CCc1ccccc1)C(=O)N[C@@H]1CN(c2ccc(F)cc2)C1=O)c1cccnc1` [Compound 73] displayed an IC50 in [2] greater than 10000 nM.
On to `COc1ccc(N2CC(NC(=O)C(CCc3ccccc3)NC(=O)C(CC(=O)NCC(C)(C)C)NC(=O)c3cccnc3)C2=O)cc1` [Compound 78, (S)‐N ^1‐[(S)‐1‐{[(R)‐1‐(4‐Methoxyphenyl)‐2‐oxoazetidin‐3‐yl]amino}‐1‐oxo‐4‐phenylbutan‐2‐yl]‐N ^4‐neopentyl‐2‐(nicotinamido)succinimide], for which the “activation and cleavage of caspase‐3 and PARP” value with RS4;11 cells [5] (RS4;11, 1, 2 and 4 μM, 8 h, western blot) is “detectable across all samples”. Further, the “accumulation of poly‐ubiquitinated proteins” value with RS4;11 cells [5] (RS4;11, western blot) is reported as “significant accumulation of poly‐ubiquitinated proteins”. Moreover, the IC50 with Molt4 cells was 3780 ± 270 nM; in the experiment on RS4;11 cells [1] (72 h), 500 ± 130 nM; in the experiment with RS4;11 cells [1] (Homo sapiens, RS4-11, 72 h), less than 1000 nM; in experiment [2], 142 ± 30.1 nM; in [3] it was greater than 10000 nM; in experiment [4], greater than 10000 nM. Also, the results for the IC50 (in experiment [7]; in the experiment with RPMI‐8226 cells; with MV‐4‐11 cells) were 17200 ± 1930 nM, 2340 ± 340 nM and 2780 ± 410 nM, respectively. Further, the “induction of apoptosis in RS4;11 cells” value in the experiment with RS4;11 cells [6] is reported as “triggered cell apoptosis in a dose‐dependent manner”.
With `C[C@H](NC(=O)c1cnccn1)C(=O)N[C@@H](CCc1ccccc1)C(=O)N[C@@H]1CN(c2ccc(F)cc2)C1=O` [Compound 71], in experiment [2], the IC50 was greater than 10000 nM.
For the compound `Cc1ccc(N2C[C@@H](NC(=O)[C@H](CCc3ccccc3)NC(=O)[C@H](CC(=O)NCC(C)(C)C)NC(=O)c3cccnc3)C2=O)cc1` [Compound 76, (S)‐N ^4‐Neopentyl‐2‐(nicotinamido)‐N ^1‐[(S)‐1‐oxo‐1‐{[(R)‐2‐oxo‐1‐(p‐tolyl)azetidin‐3‐yl]amino}‐4‐phenylbutan‐2‐yl]succinamide], the IC50 with Molt4 cells is greater than 10000 nM; in the experiment with RS4;11 cells [1] (Homo sapiens, RS4-11, 72 h), 860 ± 240 nM; in [2], 72 ± 14.9 nM; in experiment [3] it was greater than 10000 nM; in experiment [4] it was greater than 10000 nM; with RPMI‐8226 cells it was 8050 ± 1170 nM. The IC50 in the experiment on MV‐4‐11 cells was greater than 20000 nM.
In the case of `C[C@H](NC(=O)c1cccnc1)C(=O)N[C@@H](CCc1ccccc1)C(=O)N[C@@H]1CN(c2ccc(F)cc2)C1=O` [Compound 70], the IC50 in [2] is greater than 10000 nM.
`CSCC[C@H](NC(=O)c1cccnc1)C(=O)N[C@@H](CCc1ccccc1)C(=O)N[C@@H]1CN(c2ccc(F)cc2)C1=O` [Compound 75] displayed an IC50 in experiment [2] greater than 10000 nM.
In the case of `CC(C)C[C@H](NC(=O)[C@H](Cc1ccccc1)NC(=O)c1cnccn1)B(O)O` [Bortezomib, reference compound], the IC50 in the experiment with Molt4 cells worked out at 13.3 ± 2.47 nM; with RS4;11 cells [1] (Homo sapiens, RS4-11, 72 h) it was 5.87 ± 0.93 nM; in experiment [7], 1.57 ± 0.19 nM; with RPMI‐8226 cells, 3.64 ± 0.52 nM; in the experiment with MV‐4‐11 cells, 5.15 ± 1.09 nM.
In the case of `CC[C@H](C)[C@@H]1C(=O)O[C@H]1C(=O)NCCC[C@H](NC(=O)[C@H](C)N)C(=O)O` [Belactosin C], in experiment [8], the IC50 is 210 nM.
`CC(C)[C@H](NC(=O)c1cccnc1)C(=O)N[C@@H](CCc1ccccc1)C(=O)N[C@@H]1CN(c2ccc(F)cc2)C1=O` [Compound 72] returned a concentration for half-maximal inhibition (IC50) in experiment [2] greater than 10000 nM.
Compound `O=C(N[C@@H](Cc1ccccc1)C(=O)N[C@@H](CCc1ccccc1)C(=O)N[C@@H]1CN(c2ccc(F)cc2)C1=O)c1cccnc1` [Compound 74] gave an IC50 in [2] greater than 10000 nM.
`CC(C)(C)CNC(=O)C[C@H](NC(=O)c1cccnc1)C(=O)N[C@@H](CCc1ccccc1)C(=O)N[C@@H]1CN(c2ccc(C(F)(F)F)cc2)C1=O` [Compound 79, (S)‐N ^4‐Neopentyl‐2‐(nicotinamido)‐N ^1‐[(S)‐1‐oxo‐1‐{[(R)‐2‐oxo‐1‐[4‐(trifluoromethyl)phenyl]azetidin‐3‐yl]amino}‐4‐phenylbutan‐2‐yl]succinamide]: the half-maximal inhibitory concentration (IC50) in the experiment on Molt4 cells was 2370 ± 230 nM; with RS4;11 cells [1] (Homo sapiens, RS4-11, 72 h), 990 ± 170 nM; in experiment [2] it was 282 ± 33.6 nM; in experiment [3], greater than 10000 nM; in experiment [4], greater than 10000 nM; in the experiment on RPMI‐8226 cells, 3440 ± 440 nM. The compound further returned a 50% inhibitory concentration (IC50) with MV‐4‐11 cells of 2750 ± 460 nM.
In turn, `CC(C)(C)CNC(=O)C[C@H](NC(=O)c1cnccn1)C(=O)N[C@@H](CCc1ccccc1)C(=O)N[C@@H]1CN(c2ccc(F)cc2)C1=O` [Compound 68] had a half-maximal inhibitory concentration (IC50) in experiment [2] greater than 10000 nM.

As usually defined, the IC50 is the concentration that inhibits the measured activity by half.
